Legend:
[1] = biological target: T1, serotonin 5-HT1A receptor (Rattus norvegicus, UniProt P19327); assay: radioligand binding assay, 5-HT1A, [3H]-8-OH-DPAT; settings: rat brain cortex
T1 construct: serotonin 5-HT1A receptor, [^3H]-8-OH-DPAT, rat brain cortex; from tissue; host or cells: rat brain cortex
T1 sequence (P19327 1-422): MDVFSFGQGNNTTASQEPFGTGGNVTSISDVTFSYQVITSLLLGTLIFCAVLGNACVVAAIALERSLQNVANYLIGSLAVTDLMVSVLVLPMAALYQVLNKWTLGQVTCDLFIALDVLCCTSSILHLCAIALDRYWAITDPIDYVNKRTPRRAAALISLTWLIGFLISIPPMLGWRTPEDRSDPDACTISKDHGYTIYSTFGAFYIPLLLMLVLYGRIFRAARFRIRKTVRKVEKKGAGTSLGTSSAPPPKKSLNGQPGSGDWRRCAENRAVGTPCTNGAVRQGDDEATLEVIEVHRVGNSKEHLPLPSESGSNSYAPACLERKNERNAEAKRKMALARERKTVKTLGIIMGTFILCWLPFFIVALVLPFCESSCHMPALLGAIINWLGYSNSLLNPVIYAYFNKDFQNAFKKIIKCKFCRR
Description: (§1) All reactions were monitored by TLC, carried out on Merck 60G F254 plates with fluorescent indicator and the plates were visualized with UV light (254 nm). Each final compound and intermediate was purified by silica gel column chromatography (Macherey-Nagel 60 0,063–0,2 mm/70–230 mesh). […] Unless otherwise stated, all spectra were recorded in CDCl3. Chemical shifts are reported in ppm using Me4Si as internal standard. The following abbreviations are used to describe peak patterns when appropriate: s (singlet), d (doublet), t (triplet), m (multiplet), q (quartet), qt (quintet), dd (double doublet), ddd (double dd), bs (broad singlet). Mass spectra of the final products were performed on LTQ Orbitrap XL™ Fourier transform mass spectrometer (FTMS) equipped with ESI ION MAX™ source (Thermo Fisher, San José, USA). Melting points were determined using a Buchi B-540 hot-stage instrument and are uncorrected. […] All the compounds were dissolved in 5% DMSO. The following specific radioligands and tissue sources were used: (a)serotonin 5-HT1A receptor, [^3H]-8-OH-DPAT, rat brain cortex; (b) serotonin 5-HT2A receptor, [^3H]ketanserin, rat brain cortex; (c)serotonin 5-HT2C receptor, [^3H]mesulergine, rat brain cortex. Non-specific binding was determined as described in the experimental section, and specific binding as the difference between total and non-specific binding. […] The IC50 values obtained were used to calculate apparent inhibition constants (Ki) by the method of Cheng and Prussoff, from the following equation: Ki = IC50/(1 + S/KD) where S represents the concentration of the hot ligand used and KD its receptor dissociation constant (KD values, obtained by Scatchard analysis, were calculated for each labeled ligand). Radioligand binding assays for 5-HT1A were performed following a published procedure. 5-HT2A and 5-HT2C binding assays were performed reported by Herndon et al..

[2] = biological target: T2, serotonin 5-HT2C receptor (Rattus norvegicus, UniProt P08909); assay: radioligand binding assay, 5-HT2C, [3H]mesulergine; settings: rat brain cortex; read-out: Ki ± SD, 5-HT2C [3H]Mesulergine
T2 construct: serotonin 5-HT2C receptor, [^3H]mesulergine, rat brain cortex; from tissue; host or cells: rat brain cortex
T2 sequence (P08909 33-460): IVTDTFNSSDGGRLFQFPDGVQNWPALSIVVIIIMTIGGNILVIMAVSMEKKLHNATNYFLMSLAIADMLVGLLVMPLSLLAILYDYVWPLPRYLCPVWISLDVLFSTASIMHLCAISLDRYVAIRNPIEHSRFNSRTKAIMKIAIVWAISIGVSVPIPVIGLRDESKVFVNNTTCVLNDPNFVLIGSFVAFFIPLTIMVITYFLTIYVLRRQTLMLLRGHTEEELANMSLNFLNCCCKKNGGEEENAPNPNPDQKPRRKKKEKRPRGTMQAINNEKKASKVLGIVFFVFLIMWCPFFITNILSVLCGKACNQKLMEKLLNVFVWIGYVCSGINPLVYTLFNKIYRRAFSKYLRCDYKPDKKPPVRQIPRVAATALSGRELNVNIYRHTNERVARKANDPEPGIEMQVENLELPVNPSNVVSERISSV
Description: as §1

CTGF = CTGF mRNA levels in MCF7 cells, qPCR; type: cell-based, human; settings: E2 100 nM, 72 h, estrogen-starved MCF7; for CTGF mRNA levels lower compared with untreated cells: SER at IC50 dose
Description: Total RNA was isolated from cells, quantified (NanoDrop spectrophotometer, Life Technologies, Carlsbad, CA, USA) and reverse transcribed according to the manufacturer’s instructions. Semiquantitative PCR and qPCR assays were performed according to manufacturer’s instructions for Bio-Rad T100 thermal cycler and CFX Connect Real Time system (Biorad, Hercules, CA, USA), respectively. Relative gene expression quantification was measured by 2^−ΔΔCt method normalizing for the reference sample using Rps23 (Ribosomal Protein S23) as housekeeping gene.
After 72 h, cell cycle was assessed by Propidium Iodide staining (see Methods). […] As positive control, the cells were treated with E2 and SER alone (without Tamoxifen, dotted line). After 72 h, cell viability was assessed by sulforhodamine B assay (see Methods). […] After 72 h, mRNA levels of CTGF were determined by qPCR (see Methods and Table 1). Data were normalized on Ribosomal Protein S23 (Rps23) gene as internal standard and were reported as CTGF mRNA levels in MCF7 treated with SER relative to those in untreated cells (dotted line). a-c Data represent the mean ± SD of at least three independent triplicate experiments. * denotes statistically significant values compared with (a) percentage of untreated cells in G0/G1, S and G2/M cell cycle phase (*pval<0.05,**pval<0.01), (b) positive control (*adjp<0.05,**adjp <0.01,***adjp<0.001), (c) untreated cells (pval<0.05); # denotes statistically significant values compared with cells treated with Tamoxifen in absence of SER (#pval<0.05)
Fig. 7 Effect of low doses of SER79 and SER68 on MCF7 and MCF10A cells. a Estrogen-starved MCF7 cells (48 h) were treated with Tamoxifen (5 μM) in presence of E2 (100nM) and SER79 (5 μM) or SER68 (20 μM, 5 μM). As positive control, the cells were treated with E2 and SER alone (without Tamoxifen, dotted line). After 72 h, cell viability was assessed by sulforhodamine B assay (see Methods). […] After 72 h, mRNA levels of CTGF were determined by qPCR (see Methods and Table 1). Data were normalized on Ribosomal Protein S23 (Rps23) gene as internal standard. Bars represent CTGF mRNA levels in MCF7 treated with SER relative to those in untreated cells (dotted line). c MCF10A non-cancer breast epithelial cells were treated with SER79 (5 μM) or SER68 (20 μM). After 72 h, cell viability was assessed by sulforhodamine B assay (see Methods).

Row | SMILES | Ki ± SD, 5-HT1A [3H]8OH-DPAT [1] | Ki [2] [µM] | reduction of CTGF expression (CTGF; SER 20 μM) | CTGF mRNA levels lower compared with untreated cells (CTGF) | Ki ([1]; read-out: Ki ± SD, 5-HT1A [3H]8OH-DPAT) [µM] | reduction of CTGF expression (CTGF; SER 5 μM)
1 | O=C1C2C3C=CC(C3)C2C(=O)N1OCCN1CCN(c2ccc(Cl)c(Cl)c2)CC1 (stereo not drawn) [SER68] | No affinity | 0.00113 ± 0.00016 | ≈ 50% | ≈ 80% | – | –
2 | N#CN=C(NCCCN1CCN(C(c2ccc(F)cc2)c2ccc(F)cc2)CC1)c1ccccn1 [SER79] | no affinity | 0.0214 ± 0.00122 | – | ≈ 60% | > 10 | ≈ 30%
